Structures can show the parent of a compound that is named as a salt. Where two headings read alike, the source gives them in different places. Some results are limits rather than exact numbers.

Assay [1] has as its system DU145 cells. In words: Proliferation assay (DU145 cell line). Format: cell-based. The conditions noted are these: Homo sapiens, DU-145, 96 h, read-out: Biological Assay 2: Proliferation assay (DU145 cell line) median IC50. How it is done: (§1) Cultivated tumor cells (cells were ordered from ATCC, except HeLa-MaTu and HeLa-MaTu-ADR, which were ordered from EPO-GmbH, Berlin) were plated at a density of 1000 to 5000 cells/well, depending on the growth rate of the respective cell line, in a 96-well multititer plate in 200 μL of their respective growth medium supplemented 10% fetal calf serum. After 24 hours, the cells of one plate (zero-point plate) were stained with crystal violet (see below), while the medium of the other plates was replaced by fresh culture medium (200 μl), to which the test substances were added in various concentrations (0 μM, as well as in the range of 0.001-10 μM; the final concentration of the solvent dimethyl sulfoxide was 0.5%). The cells were incubated for 4 days in the presence of test substances. Cell proliferation was determined by staining the cells with crystal violet: the cells were fixed by adding 20 μl/measuring point of an 11% glutaric aldehyde solution for 15 minutes at room temperature. After three washing cycles of the fixed cells with water, the plates were dried at room temperature. The cells were stained by adding 100 μl/measuring point of a 0.1% crystal violet solution (pH 3.0). After three washing cycles of the stained cells with water, the plates were dried at room temperature. The dye was dissolved by adding 100 μl/measuring point of a 10% acetic acid solution. […] The change of cell number, in percent, was calculated by normalization of the measured values to the aborbtion values of the zero-point plate (=0%) and the absorbtion of the untreated (0 μm) cells (=100%). The IC50 values were determined by means of a 4 parameter fit using the company's own software.

Assay [2] relates to B16F10 cells. Put plainly: Proliferation assay (B16F10 cell line). Format: cell-based. The conditions noted are these: Mus musculus, B16-F10, 96 h, read-out: Biological Assay 2: Proliferation assay (B16F10 cell line) median IC50. The protocol:
as §1

Assay [3] has as its system HeLa-MaTu-ADR cells. In words: Proliferation assay (HeLa-MaTu-ADR cell line). Format: cell-based. The conditions noted are these: 96 h, read-out: Biological Assay 2: Proliferation assay (HeLa-MaTu-ADR cell line) median IC50. How it is done:
as §1

Assay [4] relates to NCI-H460 cells. Put plainly: Proliferation assay (H460 cell line). Format: cell-based. The conditions noted are these: Homo sapiens, NCI-H460, 96 h, read-out: Biological Assay 2: Proliferation assay (H460 cell line) median IC50. How it is done:
as §1

The test system of assay [5] is Caco2 cells. In words: Proliferation assay (Caco2 cell line). Format: cell-based. The following applies: Homo sapiens, Caco-2, 96 h, read-out: Biological Assay 2: Proliferation assay (Caco2 cell line) median IC50. How it is done:
as §1

For assay [6], the target named is catalytic domain of human Bub1 (amino acids 704-1085) (Homo sapiens (Human), UniProt O43683). In words: Bub1 kinase assay (TR-FRET). Format: biochemical. The conditions noted are these: 10 μM ATP, 1 μM peptide substrate; read-out: Biological Assay 1: Bub1 kinase assay median IC50. In outline: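 Phosphoserine product detected by TR-FRET (Eu-labeled anti-mouse IgG/anti-phosphoserine antibody to streptavidin-XL665) after 1 h at 22 °C. IC50 from 4-parameter logistic fit.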
catalytic domain of human Bub1 (amino acids 704-1085), sequence (O43683 704-1085): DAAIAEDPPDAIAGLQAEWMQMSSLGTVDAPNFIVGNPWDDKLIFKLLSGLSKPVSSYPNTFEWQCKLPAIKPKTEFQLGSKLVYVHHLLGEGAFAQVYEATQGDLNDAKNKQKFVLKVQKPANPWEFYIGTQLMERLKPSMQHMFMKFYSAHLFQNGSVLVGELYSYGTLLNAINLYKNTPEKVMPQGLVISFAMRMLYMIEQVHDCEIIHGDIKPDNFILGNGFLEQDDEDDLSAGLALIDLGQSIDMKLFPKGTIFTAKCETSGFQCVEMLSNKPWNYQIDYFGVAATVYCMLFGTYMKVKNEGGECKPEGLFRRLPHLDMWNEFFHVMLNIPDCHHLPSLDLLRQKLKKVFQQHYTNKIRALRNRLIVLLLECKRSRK

Assay [7] deals with HeLa cells. In words: Proliferation assay (HeLa cell line). Format: cell-based. The following applies: read-out: Biological Assay 2: Proliferation assay (HeLa cell line) median IC50.
Setting [8] is: Homo sapiens, 96 h, 4 days, crystal violet.

With `CNC(=O)c1ccc(Cl)c(Cn2nc(-c3ncc(OC)c(Nc4ccncc4)n3)c3ccccc32)c1Cl` [Example 20-1, 2,4-dichloro-3-({3-[5-methoxy-4-(pyridin-4-ylamino)pyrimidin-2-yl]-1H-indazol-1-yl}methyl)-N-methylbenzamide], the IC50 turned out to be 3000 nM in assay [1] (DU145, 4 days, crystal violet); 2400 nM in assay [2] (B16F10, 4 days, crystal violet); 3000 nM in assay [3] (HeLa-MaTu-ADR, 4 days, crystal violet); 3000 nM in assay [4] (H460, 4 days, crystal violet); 3000 nM in assay [5] (Caco2, 4 days, crystal violet); 200 nM in assay [6]. The IC50 in assay [7] (setting [8]) was determined as 190 nM.
Take `COc1ccc(Cn2nc(-c3nccc(Nc4ccncc4)n3)c3ccccc32)cc1` [Example 5-2, 2-[1-(4-methoxybenzyl)-1H-indazol-3-yl]-N-(pyridin-4-yl)pyrimidin-4-amine]: the IC50 in assay [1] worked out at 3000 nM; in assay [2] it was 3000 nM; in assay [3], 3000 nM; in assay [4], 3000 nM; in assay [5], 3000 nM; in assay [6], 27 nM. Besides, the IC50 in assay [7] (Homo sapiens, 96 h) was determined as 710 nM.
Turning to `OCC(O)COc1cnc(-c2nn(Cc3ccccc3F)c3ccccc23)nc1Nc1ccncc1` (centres unmarked) [Example 12-1, 3-({2-[1-(2-fluorobenzyl)-1H-indazol-3-yl]-4-(pyridin-4-ylamino)-pyrimidin-5-yl}oxy)propane-1,2-diol], the IC50 stood at 10000 nM in assay [1]; 10000 nM in assay [2]; 10000 nM in assay [3]; 10000 nM in assay [4]; 10000 nM in assay [5]; 11 nM in assay [6]. The IC50 in assay [7] (Homo sapiens, 96 h) is no less than 10000 nM.
Turning to `COc1cnc(-c2nn(Cc3c(Cl)cccc3Cl)c3ccccc23)nc1Nc1ccncc1` [Example 2-9-1, 2-[1-(2,6-dichlorobenzyl)-1H-indazol-3-yl]-5-methoxy-N-(pyridin-4-yl)pyrimidin-4-amine], the IC50 is 10000 nM in assay [1]; 9500 nM in assay [2]; 8100 nM in assay [3]; 10000 nM in assay [4]; 10000 nM in assay [5]; 6.7 nM in assay [6].
Take `COc1cnc(-c2nn(Cc3c(F)cc(Br)cc3OCC(F)(F)F)c3ccccc23)nc1Nc1ccncc1` [Example 18-1, 2-{1-[4-bromo-2-fluoro-6-(2,2,2-trifluoroethoxy)benzyl]-1H-indazol-3-yl}-5-methoxy-N-(pyridin-4-yl)pyrimidin-4-amine]: the IC50 in assay [6] was determined as 16 nM; in assay [7] (setting [8]), 1400 nM.
With `CCOC(=O)Cc1cccc(Cn2nc(-c3ncc(OC)c(Nc4ccncc4)n3)c3ccccc32)c1` [Example 2-35-1, ethyl [3-({3-[5-methoxy-4-(pyridin-4-ylamino)pyrimidin-2-yl]-1H-indazol-1-yl}methyl)phenyl]acetate], the values for the IC50 in assay [6] and in assay [7] (setting [8]) were 52 nM and no less than 10000 nM, respectively.
As for `CNC(=O)c1cnccc1Nc1nc(-c2nn(Cc3ccccc3F)c3ccccc23)ncc1OCCO` [Example 13-4, 4-({2-[1-(2-fluorobenzyl)-1H-indazol-3-yl]-5-(2-hydroxyethoxy)-pyrimidin-4-yl}amino)-N-methylpyridine-3-carboxamide], the results for the IC50 in assay [6] and in assay [7] (setting [8]) were 4.7 nM and 8000 nM, respectively.
`CCOc1cc(F)c(Cn2nc(-c3nccc(N(C(=O)COC)c4ccncc4)n3)c3ccccc32)c(F)c1` [Example 16-2, N-{2-[1-(4-ethoxy-2,6-difluorobenzyl)-1H-indazol-3-yl]pyrimidin-4-yl}-2-methoxy-N-(pyridin-4-yl)acetamide]: the values for the IC50 in assay [6] and in assay [7] (setting [8]) were 23 nM and 3500 nM, respectively.
On the same counts, the results for `N#Cc1cnccc1Nc1nc(-c2nn(Cc3ccccc3F)c3ccccc23)ncc1O` [Example 26-1, 4-({2-[1-(2-fluorobenzyl)-1H-indazol-3-yl]-5-hydroxypyrimidin-4-yl}amino)pyridine-3-carbonitrile] are 17 nM and 9200 nM.
Consider `OC[C@H](O)COc1cnc(-c2nn(Cc3ccccc3F)c3ccccc23)nc1Nc1ccncc1` [Example 12-3], for which the IC50 in assay [6] is 4.8 nM; in assay [7] (4 days, crystal violet), no less than 10000 nM.
Take `CCOc1ccc(Cn2nc(-c3ncc(OC)c(Nc4ccncc4)n3)c3ccccc32)c(F)c1F` [Example 2-14-1, 2-[1-(4-ethoxy-2,3-difluorobenzyl)-1H-indazol-3-yl]-5-methoxy-N-(pyridin-4-yl)pyrimidin-4-amine]: the IC50 in assay [6] came to 8.3 nM; in assay [7] (Homo sapiens, 96 h), 4700 nM.
For the molecule `COc1cnc(-c2nn(Cc3ccc(F)c(OC)c3Cl)c3ccccc23)nc1Nc1ccncc1` [Example 2-13-1, 2-[1-(2-chloro-4-fluoro-3-methoxybenzyl)-1H-indazol-3-yl]-5-methoxy-N-(pyridin-4-yl)pyrimidin-4-amine], the IC50 worked out at 8 nM in assay [6] and 3800 nM in assay [7] (setting [8]).
Turning to `COc1cnc(-c2nn(Cc3c(Cl)cccc3C(F)(F)F)c3ccccc23)nc1Nc1ccncc1` [Example 2-30-1, 2-{1-[2-chloro-6-(trifluoromethyl)benzyl]-1H-indazol-3-yl}-5-methoxy-N-(pyridin-4-yl)pyrimidin-4-amine], the values for the IC50 in assay [6] and in assay [7] (setting [8]) were 23 nM and 2200 nM, respectively.
`CCOc1cc(F)c(Cn2nc(-c3ncc(OCCO)c(Nc4ccncc4)n3)c3ccccc32)c(F)c1` [Example 15-3, 2-({2-[1-(4-ethoxy-2,6-difluorobenzyl)-1H-indazol-3-yl]-4-(pyridin-4-ylamino)pyrimidin-5-yl}oxy)ethanol hydrochloride (1:1)]: the IC50 in assay [6] amounted to 5.7 nM; in assay [7] (4 days, crystal violet), 1700 nM.
As to `COc1cnc(-c2nn(Cc3c(F)cccc3F)c3ccccc23)nc1Nc1ccncc1` [Example 2-7-1, 2-[1-(2,6-difluorobenzyl)-1H-indazol-3-yl]-5-methoxy-N-(pyridin-4-yl)pyrimidin-4-amine], the IC50 was 4.8 nM in assay [6] and no less than 10000 nM in assay [7] (Homo sapiens, 96 h).
Regarding `Fc1ccccc1Cn1nc(-c2ncc(OCc3nnn[nH]3)c(Nc3ccncc3)n2)c2ccccc21` [Example 4-7, 2-[1-(2-fluorobenzyl)-1H-indazol-3-yl]-N-(pyridin-4-yl)-5-(1H-tetrazol-5-ylmethoxy) pyrimidin-4-amine], the IC50 in assay [6] was 35 nM; in assay [7] (setting [8]), no less than 10000 nM.
On to `COc1ccc(Cn2nc(-c3ncc(OC)c(Nc4ccncc4F)n3)c3ccccc32)cc1` [Example 34-3, N-(3-fluoropyridin-4-yl)-5-methoxy-2-[1-(4-methoxybenzyl)-1H-indazol-3-yl]pyrimidin-4-amine], for which the IC50 was 28 nM in assay [6] and 8700 nM in assay [7] (Homo sapiens, 96 h).
`CCOc1cc(F)c(Cn2nc(-c3nccc(N(C(=O)COCCOC)c4ccncc4)n3)c3ccccc32)c(F)c1` [Example 16-4, N-{2-[1-(4-ethoxy-2,6-difluorobenzyl)-1H-indazol-3-yl]pyrimidin-4-yl}-2-(2-methoxyethoxy) N-(pyridin-4-yl)acetamide]: the IC50 in assay [6] worked out at 20 nM; in assay [7] (setting [8]), 2700 nM.
`CN(C)CCOc1cnc(-c2nn(Cc3ccc(F)cc3)c3ccccc23)nc1Nc1ccncc1` [Example 4-6, 5-[2-(dimethyl-amino)ethoxy]-2-[1-(4-ftuorobenzyl)-1H-indazol-3-yl]-N-(pyridin-4-yl)pyrimidin-4-amine]: the IC50 in assay [6] stood at 29 nM; in assay [7] (Homo sapiens, 96 h), 3600 nM.
Take `CCCc1ccc(Cn2nc(-c3ncc(OC)c(Nc4ccncc4C(N)=O)n3)c3ccccc32)cc1` [Example 25-2]: the IC50 in assay [6] was 5.4 nM; in assay [7] (4 days, crystal violet), no less than 10000 nM.

Values taken from patent publication US10266548B2, “Substituted benzylindazoles for use as Bub1 kinase inhibitors in the treatment of hyperproliferative diseases” (Bayer Intellectual Property GmbH, priority 2011, dated 2019).
